Experimental data published in paper PMC5031402 (PLoS ONE, 2016).
Read-outs that look alike come from different tables or passages of the source.

Key:
[1] = test system: brain AChE; conditions: read-out: IC50-30min; Gallus (chicken) brain AChE; cited from earlier work
[2] = test system: AChE; conditions: read-out: IC50-30min; Piaractus mesopotamicus, freshwater fish; cited from earlier work
[3] = test system: brain AChE; format: biochemical; conditions: Genidens genidens (catfish) brain AChE
Method: (§1) The residual enzyme activities [Er] were evaluated.

[4] = test system: AChE; conditions: read-out: IC50-30min; Prochilodus lineatus, freshwater fish; cited from earlier work
[5] = test system: brain AChE; format: biochemical, Mugil liza; conditions: for inhibition of AChE: mullet AChE, 1-5 min incubation
Method: as §1

[6] = test system: brain AChE; format: biochemical, Lagocephalus laevigatus
Method: as §1

[7] = test system: AChE; conditions: read-out: IC50-30min; Genidens genidens, marine fish; cited from earlier work
[8] = test system: brain AChE; conditions: read-out: IC50-30min; Rattus (rat) brain AChE; cited from earlier work
[9] = test system: AChE; conditions: read-out: IC50-30min; Percophis brasiliensis, marine fish; cited from earlier work
[10] = molecular target: T1, brain AChE (Gallus gallus, UniProt P36196); conditions: Gallus domesticus (hen) brain AChE
T1 sequence (P36196 20-767): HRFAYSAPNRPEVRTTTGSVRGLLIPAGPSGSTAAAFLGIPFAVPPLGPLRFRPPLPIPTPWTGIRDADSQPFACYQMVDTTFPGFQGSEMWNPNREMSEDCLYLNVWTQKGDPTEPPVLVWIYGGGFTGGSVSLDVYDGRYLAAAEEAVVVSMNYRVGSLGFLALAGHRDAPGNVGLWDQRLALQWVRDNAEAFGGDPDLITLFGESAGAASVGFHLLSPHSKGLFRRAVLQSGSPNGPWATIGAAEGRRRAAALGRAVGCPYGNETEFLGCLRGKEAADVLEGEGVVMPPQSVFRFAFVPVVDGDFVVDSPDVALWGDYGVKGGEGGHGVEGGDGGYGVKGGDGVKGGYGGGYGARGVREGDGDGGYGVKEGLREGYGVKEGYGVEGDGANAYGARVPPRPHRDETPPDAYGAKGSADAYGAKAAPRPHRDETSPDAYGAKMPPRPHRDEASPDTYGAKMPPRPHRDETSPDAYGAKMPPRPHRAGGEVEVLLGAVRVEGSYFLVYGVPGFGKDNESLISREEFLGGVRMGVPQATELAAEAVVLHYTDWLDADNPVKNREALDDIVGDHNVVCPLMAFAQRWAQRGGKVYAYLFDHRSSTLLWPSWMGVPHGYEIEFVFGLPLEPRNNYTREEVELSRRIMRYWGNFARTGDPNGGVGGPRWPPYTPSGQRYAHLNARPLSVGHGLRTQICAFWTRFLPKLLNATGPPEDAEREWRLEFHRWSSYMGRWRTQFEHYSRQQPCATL
Method: Whole brains were suspended in buffer (1 g of tissue plus 10 mL sodium phosphate 0.1 M, pH 7.5) and homogenized in an ice bath using an Ultra-Turrax homogenizer. The homogenate was then centrifuged (5,000g/30 min/5°C), and the soluble fraction was discarded. The pellet was then resuspended using the same volume of a 0.1 g% Triton X-100 in a 0.1 M sodium phosphate, pH 7.5, solution, and re-homogenized. After a second centrifugation (15,000g/90 min/5°C), the supernatant resulting from the pellet ressolubilization, or “solubilized AChE—AchEsol” [7], was collected, frozen, and stored at -20°C. All assays were conducted at most 72 hours after production of the supernatant fractions (AChEsol).
Brain AChE activity was assayed spectrophotometrically in 0.1 M sodium phosphate Triton X-100 0.1 g% pH 7.5 by a modification of Ellman’s method [18], as described by Silva Filho and colleagues [7]. The specificity of AChE for substrates (P%) was calculated by the ratio of AChE activity when using propionylthiocholine as substrate divided by AChE activity when using acetylthiocholine: P%, [(activity with ProScol/activity with AceScol) x 100] (%) [6].
Inhibition kinetic constants (IKC) were obtained using the methods described by Kemp and Wallace [9] and Carr and Chambers [19], and by the equations proposed by Kitz and Wilson [10] and Main [12]. […]

For `COP(=O)(OC)Oc1ccc([N+](=O)[O-])cc1` [methyl-paraoxon, dimethyl-4-nitrophenyl-phosphate], the IC50 [1] is listed as 37 nM, the IC50 [2] is listed as 3110 nM and the “kp: phosphorylation rate constant” value [3] is listed as 0.71 ± 0.1 min⁻¹. The “ki: Bimolecular reaction constant” value ([3]; pH 7.5, 0.1 g% Triton X-100) was 588 ± 26.7 M⁻¹ s⁻¹, the Kd ([3]; read-out: Kd: dissociation constant of enzyme-inhibitor complex (EI)) was 20300 ± 2950 nM and the IC50 [4] was 123 nM. The “kp: phosphorylation rate constant” value ([5]; Mugil liza (mullet) brain AChE) was 1.64 ± 0.6 min⁻¹, the “ki: Bimolecular reaction constant” value ([5]; Mugil liza (mullet) brain AChE, pH 7.5, 0.1 g% Triton X-100) was 179.5 ± 11.5 M⁻¹ s⁻¹ and the Kd ([5]; Mugil liza (mullet) brain AChE, read-out: Kd: dissociation constant of enzyme-inhibitor complex (EI)) was 159000 ± 59600 nM. The “inhibition of AChE” value ([5]; 5μM of MP) was “less than 10%”, the “inhibition of AChE” value ([5]; 208μM of MP) was “higher than 90%” and the IC50 ([5]; read-out: IC50: concentration that produced 50% inhibition of brain AChE activity in 30 min, Mugil liza (mullet), 30 min incubation, estimated using the ki) was 2880 ± 422 nM. For the same molecule, the “kp: phosphorylation rate constant” value ([6]; Lagocephalus laevigatus (puffer fish) brain AChE) was 0.55 ± 0.08 min⁻¹, the “ki: Bimolecular reaction constant” value ([6]; Lagocephalus laevigatus (puffer fish) brain AChE, pH 7.5, 0.1 g% Triton X-100) was 155 ± 12.7 M⁻¹ s⁻¹ and the Kd ([6]; Lagocephalus laevigatus (puffer fish) brain AChE, read-out: Kd: dissociation constant of enzyme-inhibitor complex (EI)) was 62600 ± 14700 nM. The IC50 ([6]; read-out: IC50: concentration that produced 50% inhibition of brain AChE activity in 30 min, Lagocephalus laevigatus (puffer fish), 30 min incubation, estimated using the ki) was 2840 ± 145 nM, the IC50 [7] was 455 nM and the IC50 [8] was 29 nM. The IC50 [9] was 3340 nM, the “kp: phosphorylation rate constant” value [10] was 0.47 ± 0.1 min⁻¹ and the “ki: Bimolecular reaction constant” value ([10]; pH 7.5, 0.1 g% Triton X-100) was 15010 ± 1090 M⁻¹ s⁻¹.
